In US7368414B2, “Fungicidal mixtures” (BASF Aktiengesellschaft, priority 2000, dated 2008):

Test system: Plasmopara viticola
Assay: Activity against downy mildew of grapes caused by Plasmopara viticola (protective, potted vines)
Assay type: in vivo
Settings: individual active compound
Protocol: The active compounds, separately or together, were formulated as 10% emulsion in a mixture of 63% by weight of cyclohexanone and 27% by weight of emulsifier, and diluted with water to the desired concentration.
Evaluation was carried out by determining the infected leaf areas in percent. These percentages were converted into efficacies. The efficacy (w) was calculated as follows using Abbot's formula: w=(1−α)·100/β • α corresponds to the fungal infection of the treated plants in % and • β corresponds to the fungal infection of the untreated (control) plants in %
An efficacy of 0 means that the infection level of the treated plants corresponds to that of the untreated control plants; an efficacy of 100 means that the treated plants were not infected.
The expected efficacies of the mixtures of the active compounds were determined using Colby's formula [R. S. Colby, Weeds 15, 20-22 (1967)] and compared with the observed efficacies. Colby Formula: E=x+y−x·y/100 • E expected efficacy, expressed in % of the untreated control, when using the mixture of the active compounds A and B at the concentrations a and b • x efficacy, expressed in % of the untreated control, when using the active compound A at a concentration a • y efficacy, expressed in % of the untreated control, when using the active compound B at a concentration b
Leaves of potted vines of the cultivar “Müller-Thurgau” were sprayed to run off point with an aqueous preparation of active compound which had been prepared from a stock solution comprising 10% of active compound, 85% of cyclohexanone and 5% of emulsifier. The next day, the undersides of the leaves were inoculated with an aqueous zoospore suspension of Plasmopara viticola. The vines were then initially placed at 24° C. in a chamber saturated with water vapor for 48 hours and then for 5 days in a greenhouse at 20-30° C. After this period of time, the plants were once more placed into a moist chamber for 16 hours to promote sporangiophore eruption. The extent of the development of the disease on the undersides of the leaves was then determined visually.

## Cc1ccc(-c2c(Cl)nc(C#N)n2S(=O)(=O)N(C)C)cc1 [IIa, cyazofamid]
0.25 ppm in the spray liquor, vines Müller-Thurgau
  Efficacy in % of the untreated control: 14%
1 ppm in the spray liquor
  Efficacy in % of the untreated control: 57%
4 ppm in the spray liquor
  Efficacy in % of the untreated control: 71%
